The values that follow come from patent US6576620B2, “Method of identifying partial adenosine A1 receptor agonists” (CV Therapeutics, Inc., priority 1999, dated 2003).

Series [1] relates to guinea pig isolated heart. Kind of series: Coronary conductance, isolated heart. As to conditions: for EC50: Cavia porcellus; for maximal increase of coronary conductance: this study, Compound 6 at 100 μM. The protocol: Coronary perfusion pressure (CPP) was measured using a pressure transducer, connected to the aortic cannula via a T-connector positioned approximately 3 cm above the heart. Coronary perfusion pressure was monitored throughout the experiment and recorded either on a chart recorder (Gould Recorder 2200S) or a computerized recording system (PowerLab/4S, ADInstruments Pty Ltd, Australia). Only hearts with CPP ranging from 60 to 85 mmHg (in the absence of drugs) were used in the study. Coronary conductance (in ml/min/mmHg) was calculated as the ratio between coronary perfusion rate (10 ml/min) and coronary perfusion pressure.
(§1) Guinea pigs (Hartley) of either sex weighing 300-350 g were anaesthetized with methoxyflurane and killed by decapitation. The chest was cut open and the heart was removed quickly and rinsed in ice-cold modified Krebs-Henseleit (K-H) solution. The contents of the modified K-H solution were (in mM): NaCl 117.9, KCl 4.8, CaCl2 2.5, MgSO2 1.18, KH2PO4 1.2, Na2 EDTA 0.5, ascorbic acid 0.14, dextrose 5.5, pyruvic acid (sodium salt) 2.0, and NaHCO3 25. The K-H solution was continuously gassed with 95% oxygen and 5% CO2, and the pH was adjusted to a value of 7.4. To perfuse the heart by the Langendorff method, the transected aorta was slid onto a glass cannula and secured by a ligature. Retrograde perfusion of the aorta was initiated immediately at a constant flow of 10 ml min-′ with modified K-H solution warmed to 36.0±0.5° C. A side port in the cannula was used to connect the perfusion line to a Gould pressure transducer for measurement of coronary perfusion pressure. Coronary perfusion pressure was continuously recorded on a strip chart (Gould RS3400, Cleveland, Ohio) throughout each experiment. Coronary conductance (in ml min^−1 mmHg^−1) was calculated as the ratio of coronary flow (10 ml min^−1) to perfusion pressure (mm Hg). To facilitate the exit of fluid from the left ventricle, the leaflets of the mitral valve were trimmed with fine spring-handled scissors. When appropriate, hearts were paced at a constant rate using external electrodes. After completion of dissection and instrumentation (see below) for measurement of either atrial rate, stimulus-to-His bundle (S-H) interval, monophasic action potentials, or coronary perfusion pressure, each heart was allowed to equilibrate for 20-40 min before the administration of drug. Experimental interventions were always preceded and followed by control measurements. Criteria for exclusion of hearts from study were (1) a coronary perfusion pressure of less than 50 mm Hg, (2) absence of a stable coronary perfusion pressure during the equilibration period, and (3) inability to pace a heart at a constant rate throughout an experiment.

Series [2] relates to guinea pig isolated heart. Kind of series: A-V nodal conduction time / S-H interval, isolated perfused heart. The following applies: for second-degree AV block: CPA at 30 nM, Compound 6 at all tested concentrations; for concentration causing an increase of the S-H interval by 13 msec: comparable submaximal responses. The protocol: This method evaluates the potencies of compounds to cause coronary vasodilation (A2A AdoR response) and to prolong A-V nodal conduction time (A1 AdoR response).
Rats and guinea pigs, of either sex weighing from 230 to 260 grams and 300 to 350 grams, respectively, were used in this study. Animals were anesthetized by peritoneal injection of a cocktail containing ketamine and xylazine (ketamine 100 mg, xylazine 20 mg/ml). The chest was opened and the heart quickly removed. The heart was briefly rinse in ice-cold Krebs-Henseleit solution (see below), and the aorta cannulated. The heart was then perfused at a flow rate of 10 ml/min with modified Krebs-Henseleit (K-H) solution containing NaCl 117.9, KCl 4.5, CaCl2 2.5, MgSO4 1.18, KH2PO4 1.18, pyruvate 2.0 mmol. The K-H solution (pH 7.4) was gassed continuously with 95% O2 and 5% CO2 and warmed to 35±0.50° C. The heart was electrically paced at a fixed cycle length of […] (250 beats/min) using a bipolar electrode place on the left atrium. The electrical stimuli were generated by a Grass stimulator (Model S48, W. Warwick, R.I.) and delivered through a Stimuli Isolation Unit (Model SIU5, Astro-Med, Inc., NY) as square-wave pulses of 3-msec in duration and amplitude of at least twice the threshold intensity.
A1 adenosine receptor-mediated depression of A-V nodal conduction time (negative dromotropic effect) was measured. Atrial and ventricular surface electrograms in rats and His bundle electrogram in guinea pigs, were recorded during constant atrial pacing.
The effects of compounds on coronary conductance (A2A effect) and atrioventricular conduction time or stimulus-to-His-bundle (S-H) interval (A1 effect) was then determined. Hearts were instrumented for continuous recording of coronary perfusion pressure (A2A response) and atrioventricular (A-V) conduction time or S-H interval (A1 response). In each experiment, concentration-response relationship of compounds to increase coronary conductance and to prolong A-V conduction time or S-H interval was determined. After control measurements of CPP and A-V conduction time or S-H interval were made, progressive higher concentrations of the compound studied was administered until maximal coronary vasodilation and A-V nodal conduction time or S-H interval prolongation were achieved.
as §1, with “After completion of dissection and instrumentation (see below) for measurement of either atrial rate, stimulus-to-His bundle (S-H) interval, monophasic action potentials, or coronary perfusion pressure, each heart was allowed to equilibrate for 20-40 min before the administration of drug. Experimental interventions were always preceded and followed by control measurements. Criteria for exclusion of hearts from study were (1) a coronary perfusion pressure of less than 50 mm Hg, (2) absence of a stable coronary perfusion pressure during the equilibration period, and (3) inability to pace a heart at a constant rate throughout an experiment.” left out

Entries after “also recorded” stand apart in the source; their conditions may differ.

With `OC[C@H]1O[C@@H](n2cnc3c(NC4CCCC4)ncnc32)[C@H](O)[C@@H]1O` [CPA, N^6-cyclopentyladenosine, reference compound], the coronary conductance in series [1] (CPA maximal, control 0.16±0.01) was found to be 0.33±0.01 ml min^−1 mmHg-^1. Further, the EC50 in series [1] (read-out: concentration of half-maximal increase of coronary conductance) was found to be 0.071 µM. Besides, the “maximal increase of coronary conductance” value in series [1] is reported as 0.17±0.02 ml min^−1 mmHg^−1. In addition, the S-H interval was determined as 87 ± 2 ms in series [2] (CPA 30 nM, control 44±1 msec); 59 ± 4 ms in series [2] (CPA 10 μM as printed, control 42±1 msec); 81 ± 6 ms in series [2] (CPA 15 μM as printed, control 42±1 msec); 103 ± 8 ms in series [2] (CPA 20 μM as printed, control 42±1 msec). Also, the “second-degree AV block” value in series [2] was “second-degree AV block occurred in all hearts; also recorded: caused second-degree AV block in all hearts”. In addition, the “S-H interval Efficacy” value in series [2] (Table 5, 2759 = CVT-2759) is “Full (Potent)”. In series [2], the “concentration causing an increase of the S-H interval by 13 msec” value turned out to be 10 nM.
Take `CNC(=O)OC[C@H]1OC(n2cnc3c(N[C@@H]4CCOC4)ncnc32)[C@H](O)[C@@H]1O` (stereo partly drawn) [Compound 6 of Example 2, [(5-{6-[((3R)oxolan-3-yl)amino]purin-9-yl}(3 S,2R,4R)-3,4-dihydroxyoxolan-2-yl)methoxy]-N-methylcarboxamide]: the coronary conductance in series [1] (10 μM compound, control 0.17±0.01) is recorded as 0.185±0.01 ml min^−1 mmHg^−1; in series [1] (100 μM compound, control 0.17±0.01) it was 0.26±0.02 ml min^−1 mmHg^−1. In addition, the EC50 in series [1] (estimate may be falsely low, limited solubility, read-out: concentration of half-maximal response (EC50), increase of coronary conductance) was 31 µM; in series [2] (Cavia porcellus, electrically paced heart, read-out: EC50 to increase the S-H interval), 3.1 µM. Besides, the “effect on coronary conductance” value in series [1] (concentrations ≦10 μM) is recorded as “did not significantly change the coronary conductance”. In addition, the “maximal increase of coronary conductance” value in series [1] was determined as 0.09±0.01 ml min^−1 mmHg^−1. Besides, the “concentration at which effect on S-H interval reached a maximum” value in series [2] was 30 to 100 µM. Also, the “antagonism of S-H interval prolongation induced by CPA” value in series [2] (10 μM compound) is listed as “partially reversed the S-H interval prolongation induced by CPA”. In addition, the “increase of the S-H interval” value was 12 ms in series [2] (10 μM compound) and 4 ms in series [2] (10 μM compound in the presence of 50 nM CPX). Besides, in series [2] (10 μM compound in the presence of iodotubercidin and EHNA), the “decrease of S-H interval” value stood at 16 ms. For the same molecule, the S-H interval was found to be 64 ± 2 ms in series [2] (10 μM compound in the presence of iodotubercidin and EHNA (80±6 msec before)); 58 ± 2 ms in series [2] (10 μM compound, control 46±2 msec). The “second-degree AV block” value in series [2] is reported as “did not cause second-degree A-V block in any heart”. For the same molecule, the “concentration causing an increase of the S-H interval by 13 msec” value in series [2] is recorded as 10,000 nM. For the same molecule, the “S-H interval at maximum effect” value in series [2] (control 45±1 msec) was 60 ± 3 ms. In addition, the “maximum increase of S-H interval” value in series [2] (electrically paced heart) was found to be 33%. The results for the “adenosine concentration causing second-degree AV block” value in series [2] (presence of 4 μM Compound 6 of Example 2) and in series [2] (presence of 10 μM Compound 6 of Example 2) were 8 µM and 20 µM, respectively.
